System: CHD
Experiment: Meta-analysis of CARE and WOSCOPS combined, synergy index, CHD endpoint
Format: in vivo, human
Text: Tables 4-5 provide meta-analyses of CARE and WOSCOPS combined (2nd section of each table) for two endpoints (CHD and CVD) and three genetic models (dominant, recessive, and additive), as well as logistic regression analyses of CARE (3rd section of each table) and WOSCOPS (4th section of each table) individually.
Tables 12 and 17 provide results of meta-analysis of the CARE and WOSCOPS sample sets combined by direct genotyping and by imputing genotypes.
“P” indicates the p-value, and “P(R)” (or “P.R.”) indicates the p-value random effect. Both of these are p-values corresponding to a statistical test of whether the combined synergy index is equal to one but use different assumptions to derive the p-value. “P” is calculated using a fixed effects model, and “P(R)” is calculated using a random effects model.
“OR” indicates the odds ratio (synergy index) calculated from a fixed effects model, and “OR(R)” (or “OR.R.”) indicates the odds ratio (synergy index) calculated from a random effects model.

[1] = SNP rs1321432, allele (A1) A, RECESSIVE, Imputed
[2] = SNP rs1321457, allele (A1) G, RECESSIVE, Imputed
[3] = SNP rs1336382, allele (A1) T, DOMINANT, Imputed
[4] = SNP rs1336383, allele (A1) T, DOMINANT, Imputed
[5] = SNP rs1336407, allele (A1) T, DOMINANT, Imputed
[6] = SNP rs1336409, allele (A1) T, DOMINANT, Imputed
[7] = SNP rs1336596, allele (A1) A, DOMINANT, Imputed
[8] = SNP rs1343560, allele (A1) T, ADDITIVE, Imputed
[9] = SNP rs1343560, allele (A1) T, DOMINANT, Imputed
[10] = SNP rs1361987, allele (A1) T, GENOTYPIC, Imputed
[11] = SNP rs12923993, allele (A1) C, DOMINANT, Imputed
[12] = SNP rs12936964, allele (A1) T, DOMINANT, Imputed
[13] = SNP rs12960663, allele (A1) G, ADDITIVE, Imputed
[14] = SNP rs13038146, allele (A1) C, ADDITIVE, Imputed
[15] = SNP rs13038146, allele (A1) C, GENOTYPIC, Imputed
[16] = SNP rs13134222, allele (A1) A, GENOTYPIC, Imputed
[17] = SNP rs13172910, allele (A1) A, DOMINANT, Imputed
[18] = SNP rs13194907, allele (A1) A, ADDITIVE, Imputed
[19] = SNP rs13194907, allele (A1) A, DOMINANT, Imputed
[20] = SNP rs13195745, allele (A1) A, ADDITIVE, Imputed
[21] = SNP rs13195745, allele (A1) A, DOMINANT, Imputed
[22] = SNP rs13265054, allele (A1) T, DOMINANT, Imputed
[23] = SNP rs13282131, allele (A1) C, GENOTYPIC, Imputed
[24] = SNP rs13353526, allele (A1) C, DOMINANT, Imputed
[25] = rs1003148 allele C RECESSIVE Imputed
[26] = rs1008705 allele C DOMINANT Imputed
[27] = rs1149350 allele A DOMINANT Imputed
[28] = rs1150143 allele G DOMINANT Imputed
[29] = rs1204522 allele C GENOTYPIC Imputed
[30] = rs1204524 allele A GENOTYPIC Imputed
[31] = rs1232298 allele G RECESSIVE Imputed
[32] = rs1247340 allele C DOMINANT Imputed
[33] = rs1247341 allele C DOMINANT Imputed
[34] = rs10046799 allele C ADDITIVE Imputed
[35] = rs10046799 allele C GENOTYPIC Imputed
[36] = rs10051148 allele C DOMINANT Imputed
[37] = rs10054055 allele T DOMINANT Imputed

CC[C@H](C)C(=O)O[C@H]1C[C@H](O)C=C2C=C[C@H](C)[C@H](CC[C@@H](O)C[C@@H](O)CC(=O)O)[C@H]21 [Pravastatin, pravastatin]
OR [1]: 2.1221 | OR(R) [1]: 2.1221 | OR [2]: 2.0656 | OR(R) [2]: 2.0656 | OR [3]: 1.6135 | OR(R) [3]: 1.6135 | OR [4]: 1.6135 | OR(R) [4]: 1.6135 | OR [5]: 1.6135 | OR(R) [5]: 1.6135 | OR [6]: 1.6085 | OR(R) [6]: 1.6059 | OR [7]: 0.5951 | OR(R) [7]: 0.5951 | OR [8]: 0.5393 | OR(R) [8]: 0.5393 | OR [9]: 0.5034 | OR(R) [9]: 0.5034 | OR [10]: 0.4404 | OR(R) [10]: 0.4404 | OR [11]: 1.4572 | OR(R) [11]: 1.4572 | OR [12]: 1.6688 | OR(R) [12]: 1.6688 | OR [13]: 0.6241 | OR(R) [13]: 0.6241 | OR [14]: 1.3708 | OR(R) [14]: 1.3708 | OR [15]: 1.9308 | OR(R) [15]: 1.9308 | OR [16]: 0.3011 | OR(R) [16]: 0.3011 | OR [17]: 0.6547 | OR(R) [17]: 0.6547 | OR [18]: 2.303 | OR(R) [18]: 2.303 | OR [19]: 2.505 | OR(R) [19]: 2.505 | OR [20]: 2.303 | OR(R) [20]: 2.303 | OR [21]: 2.505 | OR(R) [21]: 2.505 | OR [22]: 0.6144 | OR(R) [22]: 0.6144 | OR [23]: 1.8412 | OR(R) [23]: 1.8412 | OR [24]: 1.9371 | OR(R) [24]: 1.9371 | Meta-analysis OR (rs1948 allele A vs G (ref)): 1.66 | Meta-analysis OR (rs151806 allele G vs A (ref)): 0.63 | Meta-analysis OR (rs205279 allele A vs G (ref)): 1.81 | Meta-analysis OR (rs238272 allele A vs G (ref)): 1.45 | Meta-analysis OR (rs312929 allele G vs A (ref)): 0.75 | Meta-analysis OR (rs316720 allele G vs A (ref)): 0.71 | Meta-analysis OR (rs331555 allele A vs C (ref)): 0.74 | Meta-analysis OR (rs354342 allele A vs G (ref)): 0.67 | Meta-analysis OR (rs453625, allele A1 A (non-ref), A2 G (ref), endpoint/model not given): 0.62 | Meta-analysis OR (rs610118 allele G vs A (ref)): 0.49 | Meta-analysis OR (rs669684 allele G vs A (ref)): 0.72 | Meta-analysis OR (rs842796 allele A vs G (ref)): 1.59 | Meta-analysis OR (rs886469 allele G vs A (ref)): 0.64 | Meta-analysis OR (rs969356 allele G vs A (ref)): 0.63 | OR [25]: 0.5819 | OR(R) [25]: 0.5829 | OR [26]: 1.4761 | OR(R) [26]: 1.4761 | Meta-analysis OR (rs1035618 allele A vs C (ref)): 1.42 | Meta-analysis OR (rs1076733, allele A1 A (non-ref), A2 G (ref), endpoint/model not given): 0.67 | OR [27]: 1.6713 | OR(R) [27]: 1.6713 | OR [28]: 1.6852 | OR(R) [28]: 1.6852 | Meta-analysis OR (rs1182878, allele A1 A (non-ref), A2 G (ref), endpoint/model not given): 0.78 | OR [29]: 0.4353 | OR(R) [29]: 0.4353 | OR [30]: 0.4351 | OR(R) [30]: 0.4351 | OR [31]: 2.0566 | OR(R) [31]: 2.0955 | OR [32]: 1.6742 | OR(R) [32]: 1.6742 | OR [33]: 1.684 | OR(R) [33]: 1.684 | Meta-analysis OR (rs1343563 allele C vs A (ref)): 0.60 | Meta-analysis OR (rs1349282 allele A vs G (ref)): 0.55 | Meta-analysis OR (rs1382787 allele G vs A (ref)): 1.35 | Meta-analysis OR (rs1474396, allele A1 A (non-ref), A2 C (ref), endpoint/model not given): 1.46 | Meta-analysis OR (rs1615197 allele G vs A (ref)): 1.80 | Meta-analysis OR (rs1884897 allele A vs G (ref)): 2.07 | Meta-analysis OR (rs2008165 allele G vs A (ref)): 0.59 | Meta-analysis OR (rs2023650 allele A vs G (ref)): 0.71 | Meta-analysis OR (rs2060411 allele A vs G (ref)): 1.39 | Meta-analysis OR (rs2104506 allele A vs C (ref)): 0.71 | Meta-analysis OR (rs2129571, allele A1 A (non-ref), A2 G (ref), endpoint/model not given): 0.53 | Meta-analysis OR (rs2145540 allele A vs G (ref)): 0.56 | Meta-analysis OR (rs2268650 allele A vs G (ref)): 0.66 | Meta-analysis OR (rs2273816 allele A vs G (ref)): 1.61 | Meta-analysis OR (rs2290193, allele A1 C (non-ref), A2 A (ref), endpoint/model not given): 0.47 | Meta-analysis OR (rs2376764 allele A vs G (ref)): 0.56 | Meta-analysis OR (rs2418412 allele G vs A (ref)): 1.94 | Meta-analysis OR (rs2483641, allele A1 A (non-ref), A2 G (ref), endpoint/model not given): 0.59 | Meta-analysis OR (rs2534752 allele G vs A (ref)): 1.65 | Meta-analysis OR (rs2626130 allele G vs A (ref)): 1.32 | Meta-analysis OR (rs2695026 allele A vs G (ref)): 0.67 | Meta-analysis OR (rs2793086 allele C vs A (ref)): 0.65 | Meta-analysis OR (rs2941528 allele A vs G (ref)): 0.67 | Meta-analysis OR (rs3000490 allele G vs A (ref)): 1.38 | Meta-analysis OR (rs3213616 allele A vs G (ref)): 0.62 | Meta-analysis OR (rs3732788 allele G vs A (ref)): 0.51 | Meta-analysis OR (rs3798544 allele A vs G (ref)): 1.57 | Meta-analysis OR (rs3998860 allele A vs G (ref)): 0.61 | Meta-analysis OR (rs4289236 allele A vs G (ref)): 1.41 | Meta-analysis OR (rs4611134 allele A vs G (ref)): 1.55 | Meta-analysis OR (rs4643388 allele G vs A (ref)): 1.34 | Meta-analysis OR (rs4682522 allele C vs A (ref)): 0.55 | Meta-analysis OR (rs4830819 allele G vs A (ref)): 0.60 | Meta-analysis OR (rs4869033 allele G vs A (ref)): 0.36 | Meta-analysis OR (rs4924215 allele A vs G (ref)): 1.65 | Meta-analysis OR (rs4986146 allele A vs G (ref)): 0.63 | Meta-analysis OR (rs4993917 allele A vs C (ref)): 0.60 | Meta-analysis OR (rs5017584 allele A vs G (ref)): 1.74 | Meta-analysis OR (rs6075209 allele A vs G (ref)): 0.64 | Meta-analysis OR (rs6080603 allele A vs C (ref)): 0.62 | Meta-analysis OR (rs6491586 allele G vs A (ref)): 1.65 | Meta-analysis OR (rs6505669 allele G vs A (ref)): 1.58 | Meta-analysis OR (rs6911817, allele A1 A (non-ref), A2 G (ref), endpoint/model not given): 2.85 | Meta-analysis OR (rs7094941, allele A1 G (non-ref), A2 A (ref), endpoint/model not given): 0.74 | Meta-analysis OR (rs7179134 allele A vs G (ref)): 3.52 | Meta-analysis OR (rs7193741 allele A vs C (ref)): 2.04 | Meta-analysis OR (rs7327364 allele A vs G (ref)): 0.68 | Meta-analysis OR (rs7497613, allele A1 A (non-ref), A2 G (ref), endpoint/model not given): 0.55 | Meta-analysis OR (rs7616936, allele A1 C (non-ref), A2 A (ref), endpoint/model not given): 1.77 | Meta-analysis OR (rs7705993 allele G vs A (ref)): 1.48 | Meta-analysis OR (rs7767024, allele A1 A (non-ref), A2 G (ref), endpoint/model not given): 1.42 | Meta-analysis OR (rs7910196, allele A1 G (non-ref), A2 A (ref), endpoint/model not given): 1.47 | Meta-analysis OR (rs8051893 allele A vs G (ref)): 0.67 | Meta-analysis OR (rs8109631 allele A vs G (ref)): 1.53 | Meta-analysis OR (rs9375683 allele G vs A (ref)): 1.49 | Meta-analysis OR (rs9436636 allele A vs G (ref)): 1.35 | Meta-analysis OR (rs9446187 allele A vs G (ref)): 1.96 | Meta-analysis OR (rs9658127, allele A1 A (non-ref), A2 G (ref), endpoint/model not given): 2.79 | OR [34]: 0.724 | OR(R) [34]: 0.7134 | OR [35]: 0.5342 | OR(R) [35]: 0.5221 | OR [36]: 0.5783 | OR(R) [36]: 0.5783 | OR [37]: 0.5791 | OR(R) [37]: 0.5791 | OR (rs10067895 allele A DOMINANT Imputed): 0.5759
